We go through two molecules from patent publication US20240228475A1, “PROCESSES FOR THE PREPARATION OF (S)-2-(2,6-DIOXOPIPERIDIN-3-YL)-4-((2-FLUORO-4-((3-MORPHOLINOAZETIDIN-1-YL)METHYL)BENZYL)AMINO)ISOINDOLINE-1,3-DIONE” (Celgene Corporation, priority 2021, published 2024).

Broadly, the solubility is how much of the substance goes into solution per volume. A lower solubility goes with a poorly soluble substance.

≈ marks a conversion by molar mass, not a printed value.

A short description of series [1]: Chiral stability (racemization) of Compound 1 free base in aqueous at various pH. Particulars: for Chiral Purity: aqueous. The format is physicochemical. An excerpt: (§1) The rate is time and temperature sensitive (Table 1). The isolation of the crystalline bis-besylate salt of Compound 1 avoids the need for a pH swing. Also, the crystalline freebase has poor morphology which makes filtration slow, increasing the risk for racemization.

Series [2] is described as follows: Solubility of Compound 1 free base in aqueous at various pH. The conditions noted are these: aqueous solution, aqueous buffer. The format is physicochemical.
Text: as §1

On to `O=C1CC[C@H](N2C(=O)c3cccc(NCc4ccc(CN5CC(N6CCOCC6)C5)cc4F)c3C2=O)C(=O)N1` [Compound 1 Free Base, (S)-2-(2,6-dioxopiperidin-3-yl)-4-((2-fluoro-4-((3-morpholinoazetidin-1-yl)methyl)benzyl)amino)isoindoline-1,3-dione], for which the “Chiral stability towards aqueous base” value in series [1] (aqueous base, rate is time and temperature sensitive) was “racemization was observed”. Besides, the “Chiral Purity” value was found to be 94.1% in series [1] (pH 5.3, time 3 h); 89.1% in series [1] (pH 6.7, time 4 h); 83.2% in series [1] (pH 7.6, time 4 h). Besides, in series [2] (pH 5.3, time 3 h), the solubility at 3 h amounted to 4500 µg/mL (≈ 8.4 mM). Besides, the solubility at 4 h in series [2] (pH 6.7, time 4 h) amounted to 2400 µg/mL (≈ 4.48 mM); in series [2] (pH 7.6, time 4 h), 400 µg/mL (≈ 0.747 mM).
Consider `O=C1CC[C@H](N2C(=O)c3cccc(NCc4ccc(CN5CC(N6CCOCC6)C5)cc4F)c3C2=O)C(=O)N1.O=S(=O)(O)c1ccccc1.O=S(=O)(O)c1ccccc1` [Compound 1 bis-besylate salt, (S)-2-(2,6-dioxopiperidin-3-yl)-4-((2-fluoro-4-((3-morpholinoazetidin-1-yl)methyl)benzyl)amino)isoindoline-1,3-dione bis-besylate salt], for which the “Chiral stability compared to the crystalline freebase” value in series [1] (isolated solid, compared to crystalline freebase) is given as “more stable”.
